According to PubChem BioAssay (NCI):
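Compound exposure: 48 hours, 5 concentrations, 96-well plates. GI50 is the concentration that inhibits growth by half. At the TGI there is no net growth.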

Assays:
Test in all cases: inhibition of tumour cell growth, NCI panel, 48 h
SF-295 CNS = system: SF-295 CNS
SK-MEL-2 melanoma = system: SK-MEL-2 melanoma
IGROV1 ovarian = system: IGROV1 ovarian
PC-3 prostate = system: PC-3 prostate
SW-620 colon = system: SW-620 colon
SN12C renal = system: SN12C renal
MALME-3M melanoma = system: MALME-3M melanoma
MDA-MB-231 breast = system: MDA-MB-231 breast
SK-MEL-28 melanoma = system: SK-MEL-28 melanoma
SK-OV-3 ovarian = system: SK-OV-3 ovarian
OVCAR-4 ovarian = system: OVCAR-4 ovarian
SR leukemia = system: SR leukemia
T-47D breast = system: T-47D breast
OVCAR-3 ovarian = system: OVCAR-3 ovarian
MOLT-4 leukemia = system: MOLT-4 leukemia
BT-549 breast = system: BT-549 breast
HOP-92 NSCLC = system: HOP-92 NSCLC
NCI-H226 lung = system: NCI-H226 lung
NCI/ADR-RES ovarian = system: NCI/ADR-RES ovarian
SK-MEL-5 melanoma = system: SK-MEL-5 melanoma
HL-60(TB) leukemia = system: HL-60(TB) leukemia
UACC-257 melanoma = system: UACC-257 melanoma
HCC-2998 colon = system: HCC-2998 colon
U251 CNS = system: U251 CNS
COLO 205 colon = system: COLO 205 colon
MDA-MB-435 = system: MDA-MB-435
HS 578T breast = system: HS 578T breast
CAKI-1 renal = system: CAKI-1 renal
SF-268 CNS = system: SF-268 CNS
HOP-62 NSCLC = system: HOP-62 NSCLC
KM12 colon = system: KM12 colon
OVCAR-8 ovarian = system: OVCAR-8 ovarian
RXF 393 renal = system: RXF 393 renal
SF-539 CNS = system: SF-539 CNS
TK-10 renal = system: TK-10 renal
MCF7 breast = system: MCF7 breast
CCRF-CEM leukemia = system: CCRF-CEM leukemia
RPMI-8226 leukemia = system: RPMI-8226 leukemia
LOX IMVI melanoma = system: LOX IMVI melanoma
A549 NSCLC = system: A549 NSCLC
NCI-H460 lung = system: NCI-H460 lung
HCT-15 colon = system: HCT-15 colon
UACC-62 melanoma = system: UACC-62 melanoma
NCI-H522 lung = system: NCI-H522 lung
SNB-75 CNS = system: SNB-75 CNS
OVCAR-5 ovarian = system: OVCAR-5 ovarian
DU-145 prostate = system: DU-145 prostate
A498 renal = system: A498 renal
NCI-H23 lung = system: NCI-H23 lung
HCT-116 colon = system: HCT-116 colon
K-562 leukemia = system: K-562 leukemia
EKVX NSCLC = system: EKVX NSCLC
ACHN renal = system: ACHN renal
SNB-19 CNS = system: SNB-19 CNS
HT29 colon = system: HT29 colon

## COc1cccc(C2SC(C)C(=O)N2CCc2cccs2)c1 (stereo not given)
SF-295 CNS
  GI50: 2680 nM
  TGI: 11.2 µM
SK-MEL-2 melanoma
  GI50: 2770 nM
  TGI: 11.5 µM
IGROV1 ovarian
  GI50: 2010 nM
  TGI: 15.7 µM
PC-3 prostate
  GI50: 2050 nM
  TGI: 8.65 µM
SW-620 colon
  GI50: 3.48 µM
  TGI: 15.7 µM
SN12C renal
  GI50: 3.15 µM
  TGI: 13.5 µM
MALME-3M melanoma
  GI50: 2190 nM
  TGI: 8.09 µM
MDA-MB-231 breast
  GI50: 2720 nM
  TGI: 13.9 µM
SK-MEL-28 melanoma
  GI50: 3.6 µM
  TGI: 14 µM
SK-OV-3 ovarian
  GI50: 2950 nM
  TGI: 13.2 µM
OVCAR-4 ovarian
  GI50: 2250 nM
  TGI: 11.2 µM
SR leukemia
  GI50: 2500 nM
  TGI: 15.5 µM
T-47D breast
  GI50: 1780 nM
  TGI: 11.6 µM
OVCAR-3 ovarian
  GI50: 2040 nM
  TGI: 7.6 µM
MOLT-4 leukemia
  GI50: 2340 nM
  TGI: 10.7 µM
BT-549 breast
  GI50: 2690 nM
  TGI: 9.11 µM
HOP-92 NSCLC
  GI50: 1160 nM
  TGI: 4.37 µM
NCI-H226 lung
  GI50: 3.15 µM
  TGI: 17.2 µM
NCI/ADR-RES ovarian
  GI50: 2600 nM
  TGI: 12.7 µM
SK-MEL-5 melanoma
  GI50: 1580 nM
  TGI: 2960 nM
HL-60(TB) leukemia
  GI50: 2590 nM
  TGI: 7.49 µM
UACC-257 melanoma
  GI50: 3.17 µM
  TGI: 10.3 µM
HCC-2998 colon
  GI50: 2930 nM
  TGI: 12.3 µM
U251 CNS
  GI50: 3.1 µM
  TGI: 11.2 µM
COLO 205 colon
  GI50: 1470 nM
  TGI: 2820 nM
MDA-MB-435
  GI50: 2160 nM
  TGI: 7.28 µM
HS 578T breast
  GI50: 2560 nM
  TGI: 26.8 µM
CAKI-1 renal
  GI50: 2070 nM
  TGI: 10.5 µM
SF-268 CNS
  GI50: 2720 nM
  TGI: 13 µM
HOP-62 NSCLC
  GI50: 3.12 µM
  TGI: 14.9 µM
KM12 colon
  GI50: 2670 nM
  TGI: 8.99 µM
OVCAR-8 ovarian
  GI50: 3.49 µM
  TGI: 14.3 µM
RXF 393 renal
  GI50: 4.26 µM
  TGI: 16.4 µM
SF-539 CNS
  GI50: 3.6 µM
  TGI: 13.6 µM
TK-10 renal
  GI50: 2790 nM
  TGI: 11.7 µM
MCF7 breast
  GI50: 3.02 µM
  TGI: 12.7 µM
CCRF-CEM leukemia
  GI50: 3.01 µM
  TGI: 22.3 µM
RPMI-8226 leukemia
  GI50: 1880 nM
  TGI: 5.39 µM
LOX IMVI melanoma
  GI50: 2480 nM
  TGI: 11.6 µM
A549 NSCLC
  GI50: 3.39 µM
  TGI: 12.7 µM
NCI-H460 lung
  GI50: 2830 nM
  TGI: 11 µM
HCT-15 colon
  GI50: 2750 nM
  TGI: 12.5 µM
UACC-62 melanoma
  GI50: 1760 nM
  TGI: 10.7 µM
NCI-H522 lung
  GI50: 1710 nM
  TGI: 5.15 µM
SNB-75 CNS
  GI50: 3.2 µM
  TGI: 15.7 µM
OVCAR-5 ovarian
  GI50: 4.05 µM
  TGI: 20 µM
DU-145 prostate
  GI50: 3.95 µM
  TGI: 14.9 µM
A498 renal
  GI50: 1250 nM
  TGI: 10.5 µM
NCI-H23 lung
  GI50: 2620 nM
  TGI: 12.1 µM
HCT-116 colon
  GI50: 1890 nM
  TGI: 8.36 µM
K-562 leukemia
  GI50: 2810 nM
  TGI: > 100 µM
EKVX NSCLC
  GI50: 1490 nM
  TGI: 10.7 µM
ACHN renal
  GI50: 3.34 µM
  TGI: 13.8 µM
SNB-19 CNS
  GI50: 2960 nM
  TGI: 13.7 µM
HT29 colon
  GI50: 3.24 µM
  TGI: 12 µM
